The values below come from patent US6864373B2, “Stable amorphous celecoxib composite and process therefor” (Pharmacia Corporation, priority 2002, dated 2005).

The data set is described as follows: Solubility of celecoxib in aqueous media. It counts as physicochemical. How it is done:
However, celecoxib presents certain challenges for formulation as a rapid-onset dosage form, particularly as a rapid-onset oral dosage form. For example, celecoxib has very low solubility in aqueous media (about 2 to about 5 μg/ml) and therefore is not readily dissolved and dispersed for rapid absorption in the gastrointestinal tract when administered orally, for example in tablet or capsule form. In addition, celecoxib has a relatively high dose requirement further increasing difficulties of providing a sufficient therapeutically effective dose for rapid absorption.

SMILES strings stand for the structures. ≈ marks a conversion by molar mass, not a printed value.

For `Cc1ccc(-c2cc(C(F)(F)F)nn2-c2ccc(S(N)(=O)=O)cc2)cc1` [celecoxib, 4-[5-(4-methylphenyl)-3-(trifluoromethyl)-1H-pyrazol-1-yl]benzenesulfonamide], the solubility (commonly how much of the substance goes into solution per volume) is 2 to 5 µg/mL (≈ 5.24 to 13.1 µM).
